Laboratory results reported in patent US10758534B2 (Vertex Pharmaceuticals Incorporated, priority 2014, dated 2020).

target: T1, F508del (Homo sapiens, UniProt P13569, DEL508-508); experiment: Protocol 2: FRET membrane potential optical assay (VIPR), identification of correction compounds; assay type: cell-based; details: Table 3; compounds of Table 1 as modulators of CFTR activity; protocol not stated
T1 construct: expressed in transfected cells
Method in brief: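 Corrector readout: membrane-potential FRET (CC2-DMPE donor, DiSBAC2(3) acceptor) on VIPR II after Cl⁻-free gluconate bath with 10 μM forskolin and 20 μM genistein. Before this, F508del-expressing NIH3T3 cells were exposed to test compound for 16 h at 37 °C without serum; 27 °C incubation served as temperature-correction control.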

T1 sequence (P13569 with tags, fused parts or gaps DEL508-508): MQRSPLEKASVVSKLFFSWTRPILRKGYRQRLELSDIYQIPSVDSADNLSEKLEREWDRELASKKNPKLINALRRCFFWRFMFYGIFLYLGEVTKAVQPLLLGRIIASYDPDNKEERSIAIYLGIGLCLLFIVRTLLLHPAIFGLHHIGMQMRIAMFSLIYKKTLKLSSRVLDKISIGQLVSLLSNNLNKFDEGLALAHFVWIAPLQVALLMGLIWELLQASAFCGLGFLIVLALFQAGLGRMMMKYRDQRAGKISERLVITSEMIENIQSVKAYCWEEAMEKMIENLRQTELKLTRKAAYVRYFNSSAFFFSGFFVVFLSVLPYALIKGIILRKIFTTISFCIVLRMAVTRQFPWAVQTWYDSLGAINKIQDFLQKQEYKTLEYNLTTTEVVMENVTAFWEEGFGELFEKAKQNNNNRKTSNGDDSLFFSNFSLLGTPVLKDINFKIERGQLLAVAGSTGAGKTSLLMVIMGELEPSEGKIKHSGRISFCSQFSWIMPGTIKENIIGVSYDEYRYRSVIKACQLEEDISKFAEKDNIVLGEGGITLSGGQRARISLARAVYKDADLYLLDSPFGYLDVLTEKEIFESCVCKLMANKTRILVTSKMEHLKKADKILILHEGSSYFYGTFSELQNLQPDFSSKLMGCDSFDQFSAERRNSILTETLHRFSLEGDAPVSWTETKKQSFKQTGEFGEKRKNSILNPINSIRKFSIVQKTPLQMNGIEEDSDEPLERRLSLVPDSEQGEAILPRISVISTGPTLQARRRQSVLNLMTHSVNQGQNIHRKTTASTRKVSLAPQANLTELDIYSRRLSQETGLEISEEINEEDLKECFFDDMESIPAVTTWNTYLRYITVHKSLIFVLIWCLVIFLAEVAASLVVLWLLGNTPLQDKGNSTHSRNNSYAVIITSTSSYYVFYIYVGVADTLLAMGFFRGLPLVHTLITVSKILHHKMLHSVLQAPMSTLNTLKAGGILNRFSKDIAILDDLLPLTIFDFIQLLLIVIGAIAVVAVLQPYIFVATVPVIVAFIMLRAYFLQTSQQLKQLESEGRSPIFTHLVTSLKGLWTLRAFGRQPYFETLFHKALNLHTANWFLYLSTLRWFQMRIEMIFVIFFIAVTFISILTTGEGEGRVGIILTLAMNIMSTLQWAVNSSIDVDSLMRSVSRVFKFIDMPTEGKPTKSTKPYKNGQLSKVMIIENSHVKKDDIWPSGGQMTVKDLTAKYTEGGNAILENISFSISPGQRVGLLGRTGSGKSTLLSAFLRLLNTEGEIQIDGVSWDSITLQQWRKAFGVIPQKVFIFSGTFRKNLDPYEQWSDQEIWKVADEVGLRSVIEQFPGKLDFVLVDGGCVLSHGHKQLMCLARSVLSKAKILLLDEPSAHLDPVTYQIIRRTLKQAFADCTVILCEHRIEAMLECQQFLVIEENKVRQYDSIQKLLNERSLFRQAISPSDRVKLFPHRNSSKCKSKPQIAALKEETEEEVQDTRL

SMILES | EC30
CC(C)COc1cc(F)cc(-c2ccc(C(=O)NS(=O)(=O)c3cccc(N)n3)c(N3[C@H](C)CC[C@H]3C)n2)c1 [Compound 751, N-[(6-amino-2-pyridyl)sulfonyl]-2-[(2R,5R)-2,5-dimethylpyrrolidin-1-yl]-6-(3-fluoro-5-isobutoxy-phenyl)pyridine-3-carboxamide] | +++ (“+++” means <3 uM)
COc1ccc(-c2ccc(C(=O)NS(=O)(=O)c3cccc(N)n3)c(Oc3c(C)cc(C)cc3C)n2)c(OC)n1 [Compound 754, N-[(6-amino-2-pyridyl)sulfonyl]-6-(2,6-dimethoxy-3-pyridyl)-2-(2,4,6-trimethylphenoxy)pyridine-3-carboxamide] | +++ (“+++” means <3 uM)
CC(C)COc1cc(F)cc(-c2ccc(C(=O)NS(=O)(=O)c3ccn[nH]3)c(N3CCCC(C)C3)n2)c1 (stereo not drawn) [Compound 756, 6-(3-fluoro-5-isobutoxy-phenyl)-2-(3-methyl-1-piperidyl)-N-(1H-pyrazol-5-ylsulfonyl)pyridine-3-carboxamide] | +++ (“+++” means <3 uM)
Cc1ccc(Oc2nc(-c3cc(F)cc(OCC(C)C)c3)ccc2C(=O)NS(=O)(=O)c2ccn[nH]2)cc1 [Compound 758, 6-(3-fluoro-5-isobutoxy-phenyl)-2-(4-methylphenoxy)-N-(1H-pyrazol-5-ylsulfonyl)pyridine-3-carboxamide] | ++ (“++” means between 3 uM and 10 uM)
COc1ncccc1S(=O)(=O)NC(=O)c1cc(C(C)(C)C)nn1Cc1c(C)cc(C)cc1C [Compound 759, 5-tert-butyl-N-[(2-methoxy-3-pyridyl)sulfonyl]-2-[(2,4,6-trimethylphenyl)methyl]pyrazole-3-carboxamide] | +++ (“+++” means <3 uM)
C[C@@H]1CC[C@H](C)N1c1nc(-c2ccc(Cl)cc2)ccc1C(=O)NS(=O)(=O)c1ccc[nH]c1=O [Compound 760, 6-(4-chlorophenyl)-2-[(2S,5R)-2,5-dimethylpyrrolidin-1-yl]-N-[(2-oxo-1H-pyridin-3-yl)sulfonyl]pyridine-3-carboxamide] | ++ (“++” means between 3 uM and 10 uM)
COc1ccc(F)c(-c2ccc(C(=O)NS(=O)(=O)c3ccc[nH]c3=O)c(Oc3c(C)cc(C)cc3C)n2)c1 [Compound 762, 6-(2-fluoro-5-methoxy-phenyl)-N-[(2-oxo-1H-pyridin-3-yl)sulfonyl]-2-(2,4,6-trimethylphenoxy)pyridine-3-carboxamide] | ++ (“++” means between 3 uM and 10 uM)
Cc1cc(C(=O)NS(=O)(=O)c2cccc(N)n2)c(N2CC(C)CC2(C)C)nc1-c1ccc(F)cc1 (stereo not drawn) [Compound 763, N-[(6-amino-2-pyridyl)sulfonyl]-6-(4-fluorophenyl)-5-methyl-2-(2,2,4-trimethylpyrrolidin-1-yl)pyridine-3-carboxamide] | +++ (“+++” means <3 uM)
COc1ncccc1S(=O)(=O)NC(=O)C1(C)c2ccccc2CN1Cc1c(C)cc(C)cc1C (stereo not drawn) [Compound 765, N-[(2-methoxy-3-pyridyl)sulfonyl]-1-methyl-2-[(2,4,6-trimethylphenyl)methyl]isoindoline-1-carboxamide] | ++ (“++” means between 3 uM and 10 uM)
CC(C)Oc1ccc(-c2ccc(C(=O)NS(=O)(=O)c3cccc(N)n3)c(NC(C)c3ccccc3)n2)cn1 (stereo not drawn) [Compound 766, N-[(6-amino-2-pyridyl)sulfonyl]-6-(6-isopropoxy-3-pyridyl)-2-(1-phenylethylamino)pyridine-3-carboxamide] | ++ (“++” means between 3 uM and 10 uM)
COc1cc(-c2ccc(C(=O)NS(=O)(=O)c3cccc(N)n3)c(Oc3c(C)cc(C)cc3C)n2)ccc1O [Compound 768, N-[(6-amino-2-pyridyl)sulfonyl]-6-(4-hydroxy-3-methoxy-phenyl)-2-(2,4,6-trimethylphenoxy)pyridine-3-carboxamide] | ++ (“++” means between 3 uM and 10 uM)
CC(C)COc1cc(F)cc(-c2ccc(C(=O)NS(=O)(=O)c3cccc(N)n3)c(OCC3CC3(F)F)n2)c1 (stereo not drawn) [Compound 769, N-[(6-amino-2-pyridyl)sulfonyl]-2-[(2,2-difluorocyclopropyl)methoxy]-6-(3-fluoro-5-isobutoxy-phenyl)pyridine-3-carboxamide] | +++ (“+++” means <3 uM)
CC(C)Oc1ccc(-c2ccc(C(=O)NS(=O)(=O)c3ccc[nH]c3=O)c(N3[C@H](C)CC[C@@H]3C)n2)cn1 [Compound 770, 2-[(2S,5R)-2,5-dimethylpyrrolidin-1-yl]-6-(6-isopropoxy-3-pyridyl)-N-[(2-oxo-1H-pyridin-3-yl)sulfonyl]pyridine-3-carboxamide] | ++ (“++” means between 3 uM and 10 uM)
Cc1cc(C)c(Oc2nc(-c3cc(F)cc(OCC(C)C)c3)ccc2C(=O)NS(=O)(=O)c2cccc(C#N)n2)c(C)c1 [Compound 771, N-[(6-cyano-2-pyridyl)sulfonyl]-6-(3-fluoro-5-isobutoxy-phenyl)-2-(2,4,6-trimethylphenoxy)pyridine-3-carboxamide] | +++ (“+++” means <3 uM)

Results, then the compound that gave them:

EC30 | SMILES
++ (“++” means between 3 uM and 10 uM) | CC1(CNc2nc(C(C)(C)C)ccc2C(=O)NS(=O)(=O)c2ccc(N)cc2)CCOCC1 [Compound 752, N-(4-aminophenyl)sulfonyl-6-tert-butyl-2-[(4-methyltetrahydropyran-4-yl)methylamino]pyridine-3-carboxamide]
++ (“++” means between 3 uM and 10 uM) | CC(C)(C)c1ccc(C(=O)NS(=O)(=O)c2ccc(N)cc2)c(N2CCCCC2)n1 [Compound 753, N-(4-aminophenyl)sulfonyl-6-tert-butyl-2-(1-piperidyl)pyridine-3-carboxamide]
++ (“++” means between 3 uM and 10 uM) | Cn1ccc2cccc(Cn3nc(C(C)(C)C)cc3C(=O)NS(=O)(=O)c3cccc(N)c3)c21 [Compound 755, N-(3-aminophenyl)sulfonyl-5-tert-butyl-2-[(1-methylindol-7-yl)methyl]pyrazole-3-carboxamide]
+++ (“+++” means <3 uM) | CC(C)Oc1ccc(-c2ccc(C(=O)NS(=O)(=O)c3cccc(N)n3)c(N3CCC[C@@H](C)C3)n2)cn1 [Compound 757, N-[(6-amino-2-pyridyl)sulfonyl]-6-(6-isopropoxy-3-pyridyl)-2-[(3R)-3-methyl-1-piperidyl]pyridine-3-carboxamide]
+++ (“+++” means <3 uM) | Cc1ccccc1-c1ccc(C(=O)NS(=O)(=O)c2cccc(N)n2)c(N2CC(C)CC2(C)C)n1 (stereo not drawn) [Compound 761, N-[(6-amino-2-pyridyl)sulfonyl]-6-(o-tolyl)-2-(2,2,4-trimethylpyrrolidin-1-yl)pyridine-3-carboxamide]
+++ (“+++” means <3 uM) | CC(C)Oc1ccc(-c2ccc(C(=O)NS(=O)(=O)c3cccc(N)n3)c(N3CC[C@H](C)[C@H]3C)n2)cn1 [Compound 764, N-[(6-amino-2-pyridyl)sulfonyl]-2-[(2R,3S)-2,3-dimethylpyrrolidin-1-yl]-6-(6-isopropoxy-3-pyridyl)pyridine-3-carboxamide]
+++ (“+++” means <3 uM) | Cc1cc(C)c(Oc2nc(C(C)(C)C)ccc2C(=O)NS(=O)(=O)c2cccc(N)n2)c(C#N)c1 [Compound 767, N-[(6-amino-2-pyridyl)sulfonyl]-6-tert-butyl-2-(2-cyano-4,6-dimethyl-phenoxy)pyridine-3-carboxamide]
